Laboratory results taken from US20170107207A1, “AMINOPYRAZOLONE DERIVATIVE” (DAIICHI SANKYO COMPANY, LIMITED, priority 2014, published 2017).

How the values were obtained:
[1] = tested on: human lymphoma cell line RAMOS cells; assay: Cell growth inhibition test using RAMOS cell, MTT assay; format: cell-based; conditions: 50% growth inhibition concentration
Summary of the method: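 Cells in RPMI1640 with 10% FBS were exposed to compound (DMSO ≤1%) for 3 days at 37° C, 5% CO2. Viability was read by MTT (4 h, formazan in DMSO, OD 540/660 nm) against a day-0 plate; GI50 was interpolated from T/C % growth rates.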

[2] = molecular target: T1, TIP48/TIP49 complex (Homo sapiens, UniProt Q9Y230+Q9Y265); assay: ATPase assay of TIP48/TIP49 complex (ADP-Glo); format: biochemical; conditions: concentration at which the ATPase activity was inhibited by 50%
T1 construct: made in house; host or cells: E. coli
T1 sequence (Q9Y230 whole entry): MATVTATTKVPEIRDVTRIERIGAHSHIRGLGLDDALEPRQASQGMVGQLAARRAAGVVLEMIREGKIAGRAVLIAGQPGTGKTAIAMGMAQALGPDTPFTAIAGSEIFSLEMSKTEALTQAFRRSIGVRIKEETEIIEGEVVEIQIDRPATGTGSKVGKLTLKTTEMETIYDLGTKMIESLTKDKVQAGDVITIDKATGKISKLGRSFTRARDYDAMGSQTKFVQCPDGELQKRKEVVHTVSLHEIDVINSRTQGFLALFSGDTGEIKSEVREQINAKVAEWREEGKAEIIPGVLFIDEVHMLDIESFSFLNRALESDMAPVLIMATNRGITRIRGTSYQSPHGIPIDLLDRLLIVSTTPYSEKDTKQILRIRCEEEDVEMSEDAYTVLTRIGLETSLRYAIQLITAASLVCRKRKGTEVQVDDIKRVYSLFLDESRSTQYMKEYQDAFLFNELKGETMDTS
T1 sequence (Q9Y265 whole entry): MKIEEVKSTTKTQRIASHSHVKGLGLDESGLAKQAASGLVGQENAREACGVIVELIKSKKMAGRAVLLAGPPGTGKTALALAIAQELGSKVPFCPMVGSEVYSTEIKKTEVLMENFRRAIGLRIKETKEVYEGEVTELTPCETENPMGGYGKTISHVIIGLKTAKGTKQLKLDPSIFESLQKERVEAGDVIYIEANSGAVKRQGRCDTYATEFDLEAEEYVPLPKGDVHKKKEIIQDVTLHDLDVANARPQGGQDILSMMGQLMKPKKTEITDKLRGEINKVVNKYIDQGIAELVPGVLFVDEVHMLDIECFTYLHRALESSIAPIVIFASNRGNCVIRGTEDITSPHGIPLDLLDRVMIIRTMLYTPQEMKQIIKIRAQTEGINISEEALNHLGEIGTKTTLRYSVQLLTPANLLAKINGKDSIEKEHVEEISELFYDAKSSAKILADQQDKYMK
Summary of the method: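 Compound was tested over 10 four-fold concentrations, 200 μM down to 0.0007 μM at 2% DMSO, against E. coli-derived human rTIP48/rTIP49 for 1.5 h at room temperature, pH 7.5 with ATP. ATP hydrolysis was read as ADP-Glo luminescence, normalised to complex-only and no-complex wells, then fitted to dose-response curves.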

[3] = tested on: human lymphoma cell line RAMOS cells; assay: Cell growth inhibition test using RAMOS cell, ATP assay (CellTiter-Glo); format: cell-based; conditions: Homo sapiens, Ramos, 72 h, cultured 3 days, 50% growth inhibition concentration
Summary of the method: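 RAMOS cells seeded at 4000 cells/well with compound and cultured 3 days at 37° C, 5% CO2; viability by CellTiter-Glo luminescence. Growth rate T/C % = 100×[(B−C)/(A−C)] using day-0 and final readings; GI50 interpolated from the two concentrations bracketing 50% growth.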

Cc1cccc(-n2c(=O)c(NC(=O)CC(C)(C)CNC(=O)c3cc(Cl)cc4cc(C)oc34)c(C)n2C)n1 [Example 155, 5-Chloro-N-(4-{[1,5-dimethyl-2-(6-methyl-2-pyridyl)-3-oxopyrazol-4-yl]amino}-2,2-dimethyl-4-oxobutyl)-2-methylbenzofuran-7-carboxamide]
GI50 [1]: 59 nM | IC50 [2]: 59 nM | GI50 [3]: 190 nM

CCOc1ccc(Cl)cc1C(=O)NCC(C)(C)CC(=O)Nc1c(COC)n(C)n(-c2ccccc2)c1=O [Example 114, 5-Chloro-2-ethoxy-N-(4-{[5-(methoxymethyl)-1-methyl-3-oxo-2-phenyl-2,3-dihydro-1H-pyrazol-4-yl]amino}-2,2-dimethyl-4-oxobutyl)benzamide]
GI50 [1]: 42 nM | IC50 [2]: 31 nM | GI50 [3]: 140 nM

CCOc1ccc(Cl)cc1C(=O)NCC(C)(C)CC(=O)Nc1c(CCN(C)CC(F)(F)F)n(C)n(-c2ccccc2)c1=O [Example 39, 5-Chloro-N-{2,2-dimethyl-4-[(1-methyl-5-{2-[methyl(2,2,2-trifluoroethyl)amino]ethyl}-3-oxo-2-phenyl-2,3-dihydro-1H-pyrazol-4-yl)amino]-4-oxobutyl}-2-ethoxybenzamide]
GI50 [1]: 99 nM | IC50 [2]: 82 nM | GI50 [3]: 240 nM

CCOc1ncc(Cl)cc1C(=O)NCC(C)(C)CC(=O)Nc1c(CCN(C)C)n(C)n(-c2ccccc2)c1=O [Example 13, 5-Chloro-N-[4-({5-[2-(dimethylamino)ethyl]-1-methyl-3-oxo-2-phenyl-2,3-dihydro-1H-pyrazol-4-yl}amino)-2,2-dimethyl-4-oxobutyl]-2-ethoxypyridine-3-carboxamide]
GI50 [1]: 110 nM | IC50 [2]: 82 nM | GI50 [3]: 610 nM

CCOc1ccc(Cl)cc1C(=O)NCC(C)(C)CC(=O)Nc1c(CCN(C)C)n(CC)n(-c2ccccc2)c1=O [Example 40, 5-Chloro-N-[4-({5-[2-(dimethylamino)ethyl]-1-ethyl-3-oxo-2-phenyl-2,3-dihydro-1H-pyrazol-4-yl}amino)-2,2-dimethyl-4-oxobutyl]-2-ethoxybenzamide]
GI50 [1]: 27 nM | IC50 [2]: 33 nM | GI50 [3]: 120 nM

COc1ccc(Cl)cc1C(=O)NCC(C)(C)CC(=O)Nc1c(CN(C)C)n(C)n(-c2ccccc2)c1=O [Example 5, 5-Chloro-N-[4-({5-[(dimethylamino)methyl]-1-methyl-3-oxo-2-phenyl-2,3-dihydro-1H-pyrazol-4-yl}amino)-2,2-dimethyl-4-oxobutyl]-2-methoxybenzamide]
GI50 [1]: 180 nM | IC50 [2]: 170 nM

CCOc1cc(F)c(Cl)cc1C(=O)NCC(C)(C)CC(=O)Nc1c(CCN(C)C)n(C)n(-c2ccccc2)c1=O [Example 12, 5-Chloro-N-[4-({5-[2-(dimethylamino)ethyl]-1-methyl-3-oxo-2-phenyl-2,3-dihydro-1H-pyrazol-4-yl}amino)-2,2-dimethyl-4-oxobutyl]-2-ethoxy-4-fluorobenzamide]
GI50 [1]: 35 nM | IC50 [2]: 62 nM | GI50 [3]: 140 nM

Cc1c(NC(=O)CC(C)(C)CNC(=O)c2cc(Cl)cc3c2OC(C)(C)C3)c(=O)n(-c2ccccc2)n1CCO [Example 139, 5-Chloro-N-(4-{[1-(2-hydroxyethyl)-5-methyl-3-oxo-2-phenyl-2,3-dihydro-1H-pyrazol-4-yl]amino}-2,2-dimethyl-4-oxobutyl)-2,2-dimethyl-3H-benzofuran-7-carboxamide]
GI50 [1]: 65 nM | IC50 [2]: 25 nM

COc1ccc(Cl)cc1NC(=O)CC1(CC(=O)Nc2c(C)n(C)n(-c3ccccc3)c2=O)CCC1 [Example 100, N-(5-Chloro-2-methoxyphenyl)-2-(1-{2-[(1,5-dimethyl-3-oxo-2-phenyl-2,3-dihydro-1H-pyrazol-4-yl)amino]-2-oxoethyl}cyclobutyl)acetamide]
GI50 [1]: 860 nM | IC50 [2]: 95 nM

CCOc1ccc(Cl)cc1C(=O)NCC(C)(C)CC(=O)Nc1c(CCN(C)CC)n(C)n(-c2ccccc2)c1=O [Example 35, 5-Chloro-2-ethoxy-N-{4-[(5-{2-[ethyl(methyl)amino]ethyl}-1-methyl-3-oxo-2-phenyl-2,3-dihydro-1H-pyrazol-4-yl)amino]-2,2-dimethyl-4-oxobutyl}benzamide]
GI50 [1]: 98 nM | IC50 [2]: 26 nM

CCOc1ccc(Cl)cc1C(=O)NCC(C)(C)CC(=O)Nc1c(C)n(C)n(-c2cccc(C)n2)c1=O [Example 152, 5-Chloro-N-(4-{[1,5-dimethyl-2-(6-methyl-2-pyridyl)-3-oxopyrazol-4-yl]amino}-2,2-dimethyl-4-oxobutyl)-2-ethoxybenzamide]
GI50 [1]: 81 nM | IC50 [2]: 57 nM

COc1ccc(Cl)cc1NC(=O)CC(C)(CC(=O)Nc1c(C)n(C)n(-c2ccccc2)c1=O)OC (centres unmarked) [Example 104, N-(5-Chloro-2-methoxyphenyl)-N′-(1,5-dimethyl-3-oxo-2-phenyl-2,3-dihydro-1H-pyrazol-4-yl)-3-methoxy-3-methylpentanediamide]
GI50 [1]: 1300 nM | IC50 [2]: 250 nM

CCOc1ccc(Cl)cc1C(=O)NCC(C)(C)CC(=O)Nc1c(C)n(C)n(-c2cc(OC)ccn2)c1=O [Example 157, 5-Chloro-2-ethoxy-N-(4-{[1-(4-methoxy-2-pyridyl)-2,3-dimethyl-5-oxopyrazol-4-yl]amino}-2,2-dimethyl-4-oxobutyl)benzamide]
GI50 [1]: 120 nM | IC50 [2]: 140 nM | GI50 [3]: 430 nM

Cc1ccc2cc(Cl)cc(C(=O)NCC(C)(C)CC(=O)Nc3c(C)n(C)n(-c4ccccc4)c3=O)c2n1 [Example 107, 6-Chloro-N-{4-[(1,5-dimethyl-3-oxo-2-phenyl-2,3-dihydro-1H-pyrazol-4-yl)amino]-2,2-dimethyl-4-oxobutyl}-2-methylquinoline-8-carboxamide]
GI50 [1]: 190 nM | IC50 [2]: 66 nM

Cc1c(NC(=O)CC(C)(C)CNC(=O)c2cc(Cl)ccc2OC2CC2)c(=O)n(-c2ccccc2)n1C [Example 96]
GI50 [1]: 120 nM | IC50 [2]: 35 nM

Cc1cc2cc(Cl)cc(C(=O)NCC(C)(C)CC(=O)Nc3c(CCN(C)C)n(C)n(-c4ccccc4)c3=O)c2o1 [Example 14, 5-Chloro-N-[4-({5-[2-(dimethylamino)ethyl]-1-methyl-3-oxo-2-phenyl-2,3-dihydro-1H-pyrazol-4-yl}amino)-2,2-dimethyl-4-oxobutyl]-2-methylbenzofuran-7-carboxamide]
GI50 [1]: 32 nM | IC50 [2]: 41 nM | GI50 [3]: 130 nM

CCOc1ncc(Cl)cc1NC(=O)CC(C)(C)CC(=O)Nc1c(COC)n(C)n(-c2ccccc2)c1=O [Example 118, N-(5-Chloro-2-ethoxy-3-pyridine)-N′-[5-(methoxymethyl)-1-methyl-3-oxo-2-phenyl-2,3-dihydro-1H-pyrazol-4-yl]-3,3-dimethylpentanediamide]
GI50 [1]: 230 nM | IC50 [2]: 65 nM | GI50 [3]: 640 nM

COc1ccc(CN(C)Cc2c(NC(=O)CC(C)(C)CNC(=O)c3cc(Cl)ccc3OC)c(=O)n(-c3ccccc3)n2C)c(OC)c1 [Example 3, 5-Chloro-N-{4-[(5-{[(2,4-dimethoxyphenylmethyl)-methylamino]methyl}-1-methyl-3-oxo-2-phenyl-2,3-dihydro-1H-pyrazol-4-yl)amino]-2,2-dimethyl-4-oxobutyl}-2-methoxybenzamide]
GI50 [1]: 850 nM | IC50 [2]: 54 nM

CCOc1ccc(Cl)cc1C(=O)NCC(C)(C)CC(=O)Nc1c(CCN(CC)CC)n(C)n(-c2ccccc2)c1=O [Example 17, 5-Chloro-N-[4-({5-[2-(diethylamino)ethyl]-1-methyl-3-oxo-2-phenyl-2,3-dihydro-1H-pyrazol-4-yl}amino)-2,2-dimethyl-4-oxobutyl]-2-ethoxybenzamide]
GI50 [1]: 130 nM | IC50 [2]: 60 nM

CCOc1ncc(Cl)cc1C(=O)NCC(C)(C)CC(=O)Nc1c(C)n(C)n(-c2ccccc2)c1=O [Example 95]
GI50 [1]: 180 nM | IC50 [2]: 59 nM

COc1ccc(Cl)cc1C(=O)NCC(C)(C)CC(=O)Nc1c(C)n(C)n(-c2cccc(C)c2)c1=O [Example 145, 5-Chloro-N-(4-{[1,5-dimethyl-2-(m-toluyl)-3-oxopyrazol-4-yl]amino}-2,2-dimethyl-4-oxobutyl)-2-methoxybenzamide]
GI50 [1]: 770 nM | IC50 [2]: 42 nM

CCOc1ccc(Cl)cc1C(=O)NCC(C)(C)CC(=O)Nc1c(CCN(C)C)n(C)n(-c2ccccc2)c1=O [Example 11, 5-Chloro-N-[4-({5-[2-(dimethylamino)ethyl]-1-methyl-3-oxo-2-phenyl-2,3-dihydro-1H-pyrazol-4-yl}amino)-2,2-dimethyl-4-oxobutyl]-2-ethoxybenzamide]
GI50 [1]: 53 nM | IC50 [2]: 53 nM | GI50 [3]: 150 nM

CCOc1ncc(Cl)cc1C(=O)NCC(C)(C)CC(=O)Nc1c(C)n(CCN2CCC2)n(-c2ccccc2)c1=O [Example 140, N-[4-({1-[2-(Azetidin-1-yl)ethyl]-5-methyl-3-oxo-2-phenyl-2,3-dihydro-1H-pyrazol-4-yl}amino)-2,2-dimethyl-4-oxobutyl]-5-chloro-2-ethoxypyridine-3-carboxamide]
GI50 [1]: 240 nM | IC50 [2]: 250 nM
